Assay results as given in PMC9040678, “Sequence-specific capture and concentration of viral RNA by type III CRISPR system enhances diagnostic” (Research Square, 2022).

Target: T1, TtCan1 (Thermus thermophilus, UniProt Q53W14)
T1 construct: gene TTHB155; codon-optimised synthetic gene, E. coli BL21(DE3); N-terminal His6-TwinStrep-SUMO tag removed; monomeric
T1 sequence (Q53W14 1-636): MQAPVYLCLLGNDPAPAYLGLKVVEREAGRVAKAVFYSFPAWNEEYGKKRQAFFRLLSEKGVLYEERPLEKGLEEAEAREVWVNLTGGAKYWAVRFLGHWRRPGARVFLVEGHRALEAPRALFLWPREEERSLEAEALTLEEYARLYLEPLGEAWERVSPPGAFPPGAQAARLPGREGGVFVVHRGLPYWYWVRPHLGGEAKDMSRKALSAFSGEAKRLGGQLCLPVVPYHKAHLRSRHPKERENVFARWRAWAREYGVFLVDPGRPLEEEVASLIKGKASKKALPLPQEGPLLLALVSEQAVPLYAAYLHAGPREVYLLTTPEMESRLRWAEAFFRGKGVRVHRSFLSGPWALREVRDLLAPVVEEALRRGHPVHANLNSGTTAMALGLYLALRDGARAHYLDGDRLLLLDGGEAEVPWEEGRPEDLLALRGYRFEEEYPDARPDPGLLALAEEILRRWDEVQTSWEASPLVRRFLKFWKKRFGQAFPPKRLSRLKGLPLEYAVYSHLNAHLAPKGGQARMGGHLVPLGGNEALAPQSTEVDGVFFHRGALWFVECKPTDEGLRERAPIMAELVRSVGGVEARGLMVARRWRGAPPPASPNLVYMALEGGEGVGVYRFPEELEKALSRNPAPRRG
Test: ssRNA cleavage, denaturing PAGE; fluorescent RNA reporters
Assay type: biochemical
Conditions: allosteric activator of ssRNase activity; 200 nM enzyme, 20 nM cA4, pH 7.8, 60 °C

Question: For `Nc1ncnc2c1ncn2[C@@H]1O[C@@H]2COP(=O)(O)O[C@H]3[C@@H](O)[C@H](n4cnc5c(N)ncnc54)O[C@@H]3COP(=O)(O)O[C@H]3[C@@H](O)[C@H](n4cnc5c(N)ncnc54)O[C@@H]3COP(=O)(O)O[C@H]3[C@@H](O)[C@H](n4cnc5c(N)ncnc54)O[C@@H]3COP(=O)(O)O[C@H]2[C@H]1O` [cA4], which “ssRNA cleavage, denaturing PAGE; fluorescent RNA reporters” value is on record?
Answer: Its value is “TtCan1 is a cA4-dependent single-stranded RNase (ssRNA) but does not cleave ssDNA”.
